Experimental data: patent publication US20240299376A1, “METHOD OF TREATING A CONDITION USING A […] EFFECTIVE DOSE OF 1-(1-OXO-1,2-DIHYDROISOQUINOLIN-5-YL)-5-(TRIFLUOROMETHYL)-N-(2-(TRIFLUOROMETHYL)PYRIDIN-4-YL)-1H-PYRAZOLE-4-CARBOXAMIDE” (Janssen Pharmaceutica NV, priority 2021, published 2024)
Values joined by “and” are separate entries in the source; they are usually repeats but may differ in a detail not shown here. Equal entries are not always repeated. “Also recorded” adds a separate entry of the source. Where two headings read alike, the source gives them in different places. Marks after values point to notes of the source that are not given here.

What was measured:
[1] = Oral bioavailability, 5 mg/kg solution in PEG400; type: in vivo, mice, rats, dogs, and monkeys; conditions: plasma, oral 5 mg/kg
Text: (Data for mice, rats, and monkeys are not shown.)

[2] = FIH study 67856633LYM1001 plasma pharmacokinetics; type: in vivo, human; conditions: for AUC: read-out: AUCτ
Text: The study consists of a dose escalation phase (Part 1), to determine the recommended Phase 2 dose(s) (RP2D[s]), followed by an expansion phase at the RP2D(s) (Part 2). The dose escalation phase is supported using an adaptive dose escalation strategy guided by the modified continual reassessment method (mCRM) based on a Bayesian Logistic Regression Model (BLRM) with escalation with overdose control (EWOC) principle. The mCRM design allows the use of all cumulative dose-limiting toxicities (DLT) data up to the current dose cohort.
In Part 1, subjects were enrolled in cohorts of daily oral doses at 50 mg, 100 mg, 200 mg (1×200 mg or 4×50 mg), 300 mg (3×100 mg or 6×50 mg), 400 mg (2×200 mg or 8×50 mg), and 600 mg (3×200 mg), and loading dosing cohorts—400 mg loading dose once daily for 14 days, followed by 300 mg once daily, and 300 mg loading dose twice daily for 7 days followed by 300 mg once daily. In Part 2, subjects received daily oral doses of 300 mg.
In Part 1, PK data were available in subjects receiving doses of 50 mg (1×50 mg), 100 mg (2×50 mg), 200 mg (4×50 mg or 1×200 mg), 300 mg (6×50 mg or 3×100 mg), 400 mg (8×50 mg or 2×200 mg), and 600 mg (3×200 mg). Pharmacokinetic data were also available from the loading dose regimens of 400 mg (8×50 mg) loading dose once daily for 14 days followed by 300 mg (6×50 mg) once daily, and 300 mg (6×50 mg) loading dose twice daily for 7 days followed by 300 mg (6×50 mg) once daily.

[3] = Cycle 1 Day 1, 200 mg capsule, cohort 3 × 200 mg, individual values, N = 2, listed as JNJ-67856633
[4] = Cycle 2 Day 1, 50 mg capsule, cohort 6 × 50 mg (300 mg QD), mean, listed as JNJ-67856633
[5] = Cycle 2 Day 1, 200 mg capsule, cohort 200 mg, individual values, N = 2, listed as JNJ-67856633
[6] = Cycle 2 Day 1, 200 mg capsule, cohort 3 × 200 mg, individual values, N = 2, listed as JNJ-67856633
[7] = Cycle 2 Day 1, cohort 6 × 50 mg BID > QD, individual values, N = 2, listed as JNJ-67856633
[8] = Cycle 2 Day 1 / Cycle 1 Day 1, 50 mg capsule, cohort 50 mg, mean
[9] = Cycle 2 Day 1 / Cycle 1 Day 1, cohort 2 × 50 mg, mean
[10] = Cycle 2 Day 1 / Cycle 1 Day 1, cohort 2 × 200 mg food adlib, mean
[11] = Cycle 2 Day 1 / Cycle 1 Day 1, cohort 2 × 200 mg, mean
[12] = Cycle 2 Day 1 / Cycle 1 Day 1, cohort 3 × 200 mg, individual values, listed as JNJ-67856633
[13] = Cycle 2 Day 1 / Cycle 1 Day 1, cohort 4 × 50 mg, mean
[14] = Cycle 2 Day 1 / Cycle 1 Day 1, cohort 6 × 50 mg, mean
[15] = Cycle 2 Day 1 / Cycle 1 Day 1, cohort 8 × 50 mg > 6 × 50 mg, mean
[16] = Cycle 2 Day 1 / Cycle 1 Day 1, cohort 8 × 50 mg, mean

`O=C(Nc1ccnc(C(F)(F)F)c1)c1cnn(-c2cccc3c(=O)[nH]ccc23)c1C(F)(F)F` [Compound A, 1-(1-oxo-1,2-dihydroisoquinolin-5-yl)-5-(trifluoromethyl)-N-[2-(trifluoromethyl)pyridin-4-yl]-1H-pyrazole-4-carboxamide] gave a bioavailability ([1]; Sprague-Dawley, rat, rats) of 51.2%, a bioavailability ([1]; beagle, dog, dogs) of 100% and a bioavailability ([1]; mouse, rat, dog, monkey, all species (mice, rats, dogs, monkeys)) greater than 50%. For the same compound, the AUCτ ([2]; Cycle 1 Day 1, 50 mg capsule, cohort 6 × 50 mg (300 mg QD), mean, n = 9, listed as JNJ-67856633) was 152^c μg · h/mL, the Cmax ([2]; Cycle 1 Day 1, 50 mg capsule, cohort 6 × 50 mg (300 mg QD), mean, listed as JNJ-67856633) was 8.81 µg/mL and the Tmax ([2]; Cycle 1 Day 1, 200 mg capsule, cohort 3 × 200 mg, individual values, N = 2) was 3.00, 3.00 h. The AUCτ [2, 3] was 76.6 µg·h/mL, the Cmax [2, 3] was 4.50 µg/mL and the Cmin ([2]; Cycle 2 Day 1, 50 mg capsule, cohort 50 mg, mean) was 6.85 µg/mL. For the same compound, the Cmin ([2]; Cycle 2 Day 1, 50 mg capsule, cohort 2 × 50 mg, mean) was 15.6 µg/mL, the Cmin ([2]; Cycle 2 Day 1, 50 mg capsule, cohort 4 × 50 mg, Subject 100032 excluded, mean) was 30.4^e μg/mL and the Cmin ([2]; Cycle 2 Day 1, 50 mg capsule, cohort 6 × 50 mg (300 mg QD), mean) was 39.5 µg/mL. For the same compound, the AUCτ [2, 4] was 1144 µg·h/mL, the Cmax [2, 4] was 55.2 µg/mL and the Cmin ([2]; Cycle 2 Day 1, 50 mg capsule, cohort 8 × 50 mg, mean) was 55.6 µg/mL. For the same compound, the Cmax [2, 5] was 14.5 µg/mL, the Cmin [2, 5] was 15.5, μg/mL and 11.4 μg/mL and the Tmax [2, 5] was 0.5 h. For the same compound, the Cmin ([2]; Cycle 2 Day 1, 200 mg capsule, cohort 2 × 200 mg food adlib, mean) was 33.3 µg/mL, the Cmin ([2]; Cycle 2 Day 1, 200 mg capsule, cohort 2 × 200 mg, mean) was 30.7 µg/mL and the AUCτ [2, 6] was 458 µg·h/mL and 1811 µg·h/mL. The Cmax [2, 6] was 21.2, μg/mL and 98.6 μg/mL, the Cmin [2, 6] was 13.5 µg/mL and 71.2 µg/mL and the Tmax [2, 6] was 0.00 h and 0.50 h. The Cmax ([2]; Cycle 2 Day 1, cohort 6 × 50 mg BID > QD (300 mg BID 7 days then 300 mg QD), individual values, N = 2) was “about 29.2 μg/mL; also recorded: about 67 μg/mL”, the Cmax ([2]; Cycle 2 Day 1, cohort 6 × 50 mg BID > QD (300 mg BID 7 days then 300 mg QD), individual values, N = 2, listed as JNJ-67856633) was 29.2, μg/mL and 67.0 μg/mL and the AUCτ ([2]; Cycle 2 Day 1, cohort 6 × 50 mg BID > QD, individual values, N = 2) was “about 651 μg · h/mL; also recorded: about 1406 μg · h/mL”. For the same compound, the AUCτ [2, 7] was 651 µg·h/mL and 1406 µg·h/mL, the Cmin [2, 7] was 26.1, μg/mL and 50.6 μg/mL and the Tmax [2, 7] was 3.00, 3.00 h. The Cmin ([2]; Cycle 2 Day 1, cohort 8 × 50 mg > 6 × 50 mg, Subject 100070 excluded, mean) was 55.8^g μg/mL, the ARAUC [2, 8] was 8.37 and the ARCmax [2, 8] was 7.30. For the same compound, the ARAUC ([2]; Cycle 2 Day 1 / Cycle 1 Day 1, 200 mg capsule, cohort 200 mg) was 5.51^i, the ARCmax ([2]; Cycle 2 Day 1 / Cycle 1 Day 1, 200 mg capsule, cohort 200 mg, individual values, listed as JNJ-67856633) was 4.81, and 3.21 and the ARAUC [2, 9] was 7.80. For the same compound, the ARCmax [2, 9] was 6.56, the ARAUC [2, 10] was 12.7 and the ARCmax [2, 10] was 12.0. For the same compound, the ARAUC [2, 11] was 9.35, the ARCmax [2, 11] was 7.40 and the ARAUC [2, 12] was 3.73 and 23.7. For the same compound, the ARCmax [2, 12] was 2.72 and 21.9, the ARAUC [2, 13] was 8.10 and the ARCmax [2, 13] was 7.32. The ARCmax ([2]; Cycle 2 Day 1 / Cycle 1 Day 1, cohort 6 × 50 mg BID > QD) was 10.4^j, the ARAUC [2, 14] was 8.50 and the ARCmax [2, 14] was 7.32. The ARAUC [2, 15] was 9.80^g, h, the ARCmax [2, 15] was 7.7^g and the ARAUC [2, 16] was 12.4^f. For the same compound, the ARCmax [2, 16] was 11.3^f, the AUC ([2]; human, plasma, oral, 50 mg, Cycle 1 Day 1, 50 mg capsule, cohort 50 mg, mean) was 29.1 µg·h/mL and the Cmax ([2]; human, plasma, oral, 50 mg, Cycle 1 Day 1, 50 mg capsule, cohort 50 mg, mean, read-out: Cmax) was 1.6 µg/mL. It also gave a Tmax ([2]; human, plasma, oral, 50 mg, Cycle 1 Day 1, 50 mg capsule, cohort 50 mg, median, read-out: Tmax) of 3 h, an AUC ([2]; human, plasma, oral, 50 mg, Cycle 2 Day 1, 50 mg capsule, cohort 50 mg, mean) of 180 µg·h/mL and a Cmax ([2]; human, plasma, oral, 50 mg, Cycle 2 Day 1, 50 mg capsule, cohort 50 mg, mean, read-out: Cmax) of 8.74 µg/mL. For the same compound, the Tmax ([2]; human, plasma, oral, 50 mg, Cycle 2 Day 1, 50 mg capsule, cohort 50 mg, median, read-out: Tmax) was 2 h, the AUC ([2]; human, plasma, oral, 100 mg, Cycle 1 Day 1, 50 mg capsule, cohort 2 × 50 mg, mean) was 51.4 µg·h/mL and the Cmax ([2]; human, plasma, oral, 100 mg, Cycle 1 Day 1, 50 mg capsule, cohort 2 × 50 mg, mean, read-out: Cmax) was 3 µg/mL. For the same compound, the Tmax ([2]; human, plasma, oral, 100 mg, Cycle 1 Day 1, 50 mg capsule, cohort 2 × 50 mg, median, read-out: Tmax) was 4 h.
